Values quoted from earlier work, collected in patent US20250360221A1 (priority 2025, published 2025).
Entries after “also recorded” stand apart in the source; their conditions may differ. Where a name gives a salt, the structure may show the parent alone. Read-outs that look alike come from different tables or passages of the source.

Columns and labels:
[1] = humans
[2] = tested on: patients with severe cancer pain
proteolytic enzymes = conditions: compared to other opioid peptides
humans = conditions: epidural injections
[3] = tested on: patients suffering from cancer pain; conditions: continuous intrathecal infusion for two weeks
μ-opioid receptor = μ-opioid receptor (Homo sapiens, UniProt P35372)
Chain of μ-opioid receptor (P35372 whole entry, species assumed): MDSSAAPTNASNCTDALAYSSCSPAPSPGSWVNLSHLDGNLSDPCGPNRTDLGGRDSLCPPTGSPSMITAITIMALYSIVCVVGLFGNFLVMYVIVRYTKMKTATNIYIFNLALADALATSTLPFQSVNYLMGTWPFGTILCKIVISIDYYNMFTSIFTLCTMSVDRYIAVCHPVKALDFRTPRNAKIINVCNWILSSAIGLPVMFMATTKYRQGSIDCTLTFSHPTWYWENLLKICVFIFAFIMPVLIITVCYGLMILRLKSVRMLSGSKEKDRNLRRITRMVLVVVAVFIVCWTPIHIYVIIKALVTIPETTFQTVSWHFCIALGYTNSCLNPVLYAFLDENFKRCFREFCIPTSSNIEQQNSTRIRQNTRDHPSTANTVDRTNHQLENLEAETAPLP

[4] = across the human BBB; transporter type named
[5] = animals, prior art
[6] = intrathecal, 3 mg, patients with severe cancer pain

In the case of β-endorphin, the “crossing of the BBB” value ([1]; administered intravenously) is given as “does not cross the BBB”, the respiratory depression ([2]; intrathecal or epidural administration to humans) is given as “no evidence of respiratory depression” and the adverse effects [2, 6] is given as “without major adverse effects”. The duration of analgesia [2, 6] was “approximately 33.4 hours”, the “resistance to degradation by proteolytic enzymes / peptidases” value (proteolytic enzymes) was “resistant to degradation by proteolytic enzymes; also recorded: quite stable and resistant to many peptidases” and the duration of analgesia (humans) was 19.5 h. The side effects (humans) was “without major side effects”, the analgesia [3] was “profound analgesia” and the “tolerance or respiratory depression” value [3] was “did not demonstrate tolerance; also recorded: no evidence of tolerance or respiratory depression”. The respiratory depression (animals; intracerebroventricular administration) was “reports of respiratory depression” and the tolerance (animals; intracerebroventricular injection) was “tolerance develops”.
In the case of “γ endorphin: γ endorphin, stated not analgesic (YGGFMTSEKSQTPLVTL; Beta-endorphin gamma-endorphin; UniProt P01189 237-253, looked up, fragment)”, the analgesic activity (μ-opioid receptor) is listed as “not analgesic”.
In the case of CCOC(=O)CC(O)(CC(=O)OCC)C(=O)OCC [triethyl citrate], the “crossing of the BBB” value ([1]; prior art) is listed as “probably crosses the BBB”.
In the case of CC/C=C\C/C=C\C/C=C\CCCCCCCC(=O)O [Linolenic acid], the “Active Transport” value [4] is listed as “+ lipid”.
For CC/C=C\C/C=C\C/C=C\C/C=C\C/C=C\C/C=C\CCC(=O)O [DHA, docosahexaenoic acid], the “Active Transport” value [4] is listed as “+ protein”.
For O=C1O[C@H]([C@@H](O)CO)C(=O)C1=O [Dehydroascorbic acid], the “Active Transport” value [4] is listed as “+ GLUT” and the “crossing of the BBB” value [5] is listed as “crosses via GLUT1 transporter the BBB”.
In the case of CC(C)CCC[C@@H](C)[C@H]1CC[C@H]2[C@@H]3CC=C4C[C@@H](O)CC[C@]4(C)[C@H]3CC[C@]12C [Cholesterol], the “Active Transport” value [4] is listed as “+ lipid”.
For CC(=O)Oc1ccc2c3c1O[C@H]1[C@@H](OC(C)=O)C=C[C@H]4[C@@H](C2)N(C)CC[C@@]341 [Diacetylmorphine], the “crossing of the BBB” value ([1]; prior art) is listed as “crosses the BBB”.
In the case of O=C1NC(c2ccccc2)(c2ccccc2)C(=O)N1COP(=O)(O)O [fosphenytoin], the “crossing of the BBB” value ([1]; prior art) is given as “crosses the BBB”.
In the case of “β-endorphin (1-27) (YGGFMTSEKSQTPLVTLFKNAIIKNAY; Beta-endorphin; UniProt P01189 237-263, looked up, fragment) [shorter fragment of β-endorphin]”, the “potency compared to β-endorphin (1-31)” value (μ-opioid receptor) is listed as “less potent”.
In the case of α endorphin, the analgesic activity (μ-opioid receptor) is listed as “not analgesic”.
In the case of Cc1cc(OCC(=O)O)cc(C)c1Cc1ccc(O)c(C(C)C)c1 [sobetirome], the “crossing of the BBB” value ([1]; prior art) is listed as “crosses the BBB”.
